The target in assay [1] is T1, R12Y/G67S/Y100I ecDHFR fused to yellow fluorescent protein (ecDHFR.YFP) (Escherichia coli, UniProt P0ABQ4, G67S/R12Y/Y100I). In kind it is cell-based. The following applies: for stabilization of ecDHFR.YFP: 10 μM final concentration, 24 h treatment; for dose-dependent stabilization of ecDHFR.YFP: dose-response, 24 h.
For assay [2], the target named is R12Y/M16L/G67S/Y100I ecDHFR.YFP (Escherichia coli, UniProt P0ABQ4, G67S/M16L/R12Y/Y100I). It is filed as cell-based. The conditions noted are these: 24 h, vs control ecDHFR DD.
Assay [3] has as its target T2, ecDHFR DD firefly luciferase (ecDHFR.FLuc) (Escherichia coli, UniProt P0ABQ4, G67S/R12Y/Y100I). It is filed as in vivo, BALB/c mice. The conditions noted are these: 1 mg (50 mg/kg) oral gavage, 6 h, mean ± SEM.
In assay [4] the target is R12Y/G67S/I94L/Y100I ecDHFR.YFP (Escherichia coli, UniProt P0ABQ4, G67S/I94L/R12Y/Y100I). In kind it is cell-based. The conditions noted are these: 24 h, vs control ecDHFR DD.
In assay [5] the target is R12Y/F31L/G67S/Y100I ecDHFR.YFP (Escherichia coli, UniProt P0ABQ4, F31L/G67S/R12Y/Y100I). In kind it is cell-based. The following applies: 24 h, vs control ecDHFR DD.
Assay [6] concerns the target I5F/R12Y/G67S/Y100I ecDHFR.YFP (Escherichia coli, UniProt P0ABQ4, G67S/I5F/R12Y/Y100I). It is filed as cell-based. The following applies: 24 h, vs control ecDHFR DD.
Assay [7] deals with T2, ecDHFR DD firefly luciferase (ecDHFR.FLuc). It is filed as in vivo, BALB/c mice. The conditions noted are these: 1 mg (50 mg/kg) oral gavage, 6 h, mean ± SEM. This is another data set of the same source.
The subject of assay [8] is RN4220 S. aureus. Briefly: Bacterial growth assay, Gram-positive S. aureus. In kind it is cell-based. The following applies: concentrations up to 50 μM.
Assay [9] addresses T3, recombinant hsDHFR (Homo sapiens, UniProt P00374).
T3 sequence (P00374 1-187): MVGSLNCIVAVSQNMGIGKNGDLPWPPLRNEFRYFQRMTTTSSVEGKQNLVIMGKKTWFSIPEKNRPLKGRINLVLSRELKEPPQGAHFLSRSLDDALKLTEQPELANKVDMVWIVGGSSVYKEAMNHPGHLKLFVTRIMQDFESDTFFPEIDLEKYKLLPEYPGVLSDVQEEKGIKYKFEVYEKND
Briefly: Human DHFR. It is filed as biochemical. The following applies: 1 μM compound.

Assay [10] relates to Iba1(+) microglia. Kind of assay: Iba1. The following applies: 1 mg per day for 7 days, oral gavage. It is filed as in vivo, BALB/c mice.
Assay [11] deals with ecDHFR.YFP (Escherichia coli, UniProt P0ABQ4, G67S/R12Y/Y100I). In kind it is cell-based. The conditions noted are these: for stabilization of ecDHFR after washout: 48 h post washout; for "Off" kinetics compared with TMP: 1 and 10 μM.
Assay [12] relates to BW25113 wild-type E. coli. Briefly: Bacterial growth assay, Gram-negative E. coli. The conditions noted are these: Escherichia coli, BW25113, read-out: minimal inhibitory concentration [MIC].
For assay [13], the target named is T1, R12Y/G67S/Y100I ecDHFR fused to yellow fluorescent protein (ecDHFR.YFP). In kind it is cell-based. The conditions noted are these: 5 μM, 24 h.

16 molecules from PMC7245562 (Cell chemical biology, 2020) can be followed below.

In brackets after ≈: the same amount, converted by molar mass.

For the molecule `Nc1ccnc(N)n1` [2,4-DAP, 2,4-diaminopyrimidine], the “stabilization of ecDHFR.YFP” value in [1] is given as “insufficient to stabilize”.

Regarding `Nc1ncc(C=O)c(N)n1` [2,4-DAP-5C, 2,4-diaminopyrimidine-5-carbaldehyde], the “stabilization of ecDHFR.YFP” value in assay [1] is “insufficient to stabilize”.

Regarding `Nc1nc(N)c2ccccc2n1` [2,4-DAQ, 2,4-diaminoquinazoline], the “effect of Met16 (M16L) mutation on stabilization” value in assay [2] is “did not significantly disrupt”. Further, in [3], the “fold change in luminescence after treatment, eye” value (“fold change in luminescence” below) is 1.6 ± 0.3 fold. In assay [4], the “responsiveness to stabilization, Ile94 (I94L) mutant” value is given as “eliminated all responsiveness”. Also, the “responsiveness to stabilization, Phe31 (F31L) mutant” value in [5] was “eliminated all responsiveness”. The “responsiveness to stabilization, Ile5 (I5F) mutant” value in assay [6] is recorded as “eliminated all responsiveness”. The “fold change in bioluminescent signal, liver” value (shortened to “fold change … liver”) in [7] stood at 5.3 ± 2.1 fold.

With `Nc1nc2ccccc2c(=O)[nH]1` [2-AQ-4O, 2-amino-3H-quinazolin-4-one], the “stabilization of ecDHFR.YFP” value in assay [1] is “did not allow for stabilization”.

`Nc1nc(N)c2nc(-c3cccc(Cl)c3)c(N)nc2n1` [Epiblastin A]: in [8], the “S. aureus growth inhibition” value is given as “did not completely inhibit growth”. In assay [9], the “inhibition of hsDHFR activity” value is listed as “intermediately inhibited”.

As to `COc1ccc(COc2ccc(Cc3cnc(N)nc3N)cc2OC)cc1` [GW2580], the MIC in [8] (LB broth, endpoint 19-24 h) was ~ 50 μM. In assay [10], the “reduction of Iba1(+) microglia, inner retina” value worked out at 33% and the “reduction of Iba1(+) microglia, outer retina” value was 32%. In assay [3], the “fold change in luminescence” value is listed as 8.6 ± 1.7 fold.

Turning to `C#CCC(Cc1cnc2nc(N)nc(N)c2n1)c1ccc(C(=O)N[C@@H](CCC(=O)O)C(=O)O)cc1` (stereo partly shown) [Pralatrexate], the “stabilization of ecDHFR after washout” value in assay [11] is listed as “continued to stabilize ecDHFR”. Moreover, in [11] (all concentrations used (0.1, 1, 10 μM)), the “time of peak ecDHFR.YFP fluorescence” value is reported as 48 h. Further, the “dose-dependent stabilization of ecDHFR.YFP” value in assay [1] was “readily stabilized”. Also, in assay [9], the “inhibition of hsDHFR activity” value is “completely inhibited”. Also, the “fold change in luminescence” value in [3] worked out at 3.5 ± 0.7 fold. Besides, the “fold change … liver” value in assay [7] is given as 7.1 ± 1.3 fold.

With `Nc1nc(N)c2nc(-c3ccccc3)c(N)nc2n1` [Triamterene], the “inhibition of hsDHFR activity” value in assay [9] was “intermediately inhibited”. In assay [3], the “fold change in luminescence” value worked out at 3.1 ± 0.6 fold. The “fold change … liver” value in [7] was found to be 1.9 ± 0.2 fold.

Take `CC1(C)N=C(N)N=C(N)N1OCCCOc1cc(Cl)c(Cl)cc1Cl` [WR99210]: in assay [9], the “inhibition of hsDHFR activity” value is “intermediately inhibited”.

As for `Nc1nc(N)c2nc(CNc3ccc(C(=O)N[C@@H](CCC(=O)O)C(=O)O)cc3)cnc2n1` [aminopterin], the “stabilization of ecDHFR after washout” value in assay [11] is recorded as “continued to stabilize ecDHFR”. Besides, in [1], the “dose-dependent stabilization of ecDHFR.YFP” value is given as “readily stabilized”. Further, the “inhibition of hsDHFR activity” value in assay [9] is “completely inhibited”.

As to `COc1ccc(Cc2cnc(N)nc2N)cc1OC` [diaveridine], in [11], the “"Off" kinetics compared with TMP” value is reported as “noticeably quicker”. Also, the MIC in assay [12] is about 16.6 µM (≈ 4.32 µg/mL).

Consider `COc1cc(C)c(Cc2cnc(N)nc2N)cc1OC` [ormetoprim], for which the “"Off" kinetics, time after removal” value in [11] (0.1 μM) is 2 to 4 h. Also, the “"Off" kinetics compared with TMP” value in assay [11] is given as “noticeably quicker”. For the same molecule, the MIC in assay [12] is about 16.6 µM (≈ 4.55 µg/mL).

With `Nc1nc2[nH]cc(CCc3ccc(C(=O)N[C@@H](CCC(=O)O)C(=O)O)cc3)c2c(=O)[nH]1` [pemetrexed], the “stabilization of ecDHFR.YFP” value in assay [1] was “did not allow for stabilization”.

For the molecule `[H]/N=C(\N/C(=N/[H])Nc1ccc(Cl)cc1)NC(C)C` [proguanil], the “stabilization of ecDHFR.YFP” value in [1] is “no stabilization capabilities”.

Turning to `Cc1cc(/C=C/c2ccc3cc(N(C)C)ccc3[n+]2C)c(C)n1-c1ccccc1` [pyrvinium pamoate], the “hit follow-up in ARPE-19 cells lacking ecDHFR.YFP” value in assay [13] is “fluorescent false positives”.

`Cc1nc2ccc(CN(C)c3ccc(C(=O)N[C@@H](CCC(=O)O)C(=O)O)s3)cc2c(=O)[nH]1` [raltitrexed]: the “stabilization of ecDHFR.YFP” value in assay [1] was “did not allow for stabilization”.
